These results are taken from US4645756A, “[α,ω-bis(diphenylphosphino)hydrocarbon]bis[(thiosugar)gold] and bis[(selenosugar)gold] derivatives, pharmaceutical compositions and method of use” (priority 1985, dated 1987).

Test [1] concerns P388 lymphocytic leukemia. Briefly: in vivo ip P388 leukemia mouse model. Conditions: for ILS relative to cisplatin / activity in the P388 leukemia assay: ip P388, in words; for ILS (Max), maximum increase in lifespan: mice bearing ip P388 leukemia, ip days 1-5, slash-separated figures are separate experiments. The source says: P388 lymphocytic leukemia is currently the most widely used animal tumor model for screening for antitumor agents and for detailed evaluation of active compounds. This tumor system is widely accepted as an antitumor agent screening tool because it is sensitive to virtually all of the clinically active antineoplastic agents; quantitative and reproducible; amenable for large-scale screening; and predictive for activity in other animal tumor models.
10^6 P388 leukemia cells are inoculated ip in B6D2F1 mice. Twenty-four hours later, if the tumor inoculum proves to be free of bacterial contamination (as determined by 24 hours incubation in thioglycollate broth), animals are randomized into groups of 6 and housed in shoebox cages. […] An equal volume of saline is added; if the drug comes out of solution an equal volume of polyethoxylated castor oil is added and then saline qs to a concentration such that the desired dose is delivered in 0.5 ml. The final concentration of DMA, ethanol and polyethoxylated castor oil is 10 percent. Dilutions for lower doses are made with saline so there is a decreasing proportion of organic solvents in the vehicle with decreasing dosage. These vehicles provide soluble formulations (or suspensions). Formulations are prepared immediately prior to injection. The compound is administered ip on Days 1 through 5 (i.e. treatment is initiated 24 hrs after tumor inoculation). Each experiment includes three groups of 6 animals as untreated controls and animals treated with a positive control, cisplatin, at two dose levels. Animals are weighed as a group on Days 1, 5 and 9 and average weight change (Δwt.) is used as a reflection of toxicity. Each experiment also includes an inoculum titration--groups of 8 mice inoculated ip with 10^5 to 10° P388 leukemia cells. The titration is used to calculate cell kill achieved by treatment with drugs. Animals are monitored daily for mortality and experiments are terminated after 45 days. The endpoint is median survival time (MST) and increase in lifespan (ILS) which is the percentage of increase in MST relative to untreated controls. Untreated controls inoculated ip with 10^6 P388 leukemia cells generally survive for a median of 10 or 11 days. A drug is considered active if it produces ≥25 percent ILS.

Test [2] has as its system M5076 reticulum cell sarcoma. Briefly: ip implanted M5076 reticulum cell sarcoma in mice. Format: in vivo, mouse. Conditions: mice bearing ip M5076; ip qD × 10; slash-separated figures are separate experiments. As to the method: Another chemosensitive tumor model is intraperitoneally (ip) implanted M5076 reticulum cell sarcoma in mice. In this system B6D2F female mice are inoculated with 0.5 ml of a 10 percent (w:v) brei of M5076 prepared from pooled subcutaneous (sc) tumors excised at about 21 days from C57B1/6 donors. Drugs are administered ip. Daily treatement is begun 24 hours after implantation and is continued for ten days. The treatment regimen for M5076 is more prolonged than for P388 because of the slower growth rate and longer control survival time of the M5076 tumor. The antitumor activity of Compounds No. 1 and No. 2 of Table A in the M5076 reticulum cell sarcoma tumor model is set forth in Table 2.

For test [3], the system named is HT-29 human colon carcinoma cells. In words: HT-29 human colon carcinoma cell kill in vitro, 2 hour exposure. Format: cell-based. Conditions: +FCS. As to the method:
Additionally, in another in vitro assay, Compound No. 1 effectively killed HT-29 human colon carcinoma cells, with an IC50 (+FCS) of 5 μM following a 2 hour exposure.

In a further test the test system is ADJ-PC6 Plasmacytoma. In words: ADJ-PC6 Plasmacytoma implanted sc in BALB/c female mice. It is filed as in vivo, mouse. As to the method: Likewise, Compound No. 1 from Table A was tested in an additional in vivo tumor model known as ADJ-PC6 Plasmacytoma. In this assay, tumor cells are carried by serial sc passage in BALB/c female mice and then collected aseptically on ca. day 21 and minced in Hank's balanced salt solution. The cells are then dispersed by homogenization in a loose-fitting teflon glass homogenizer, and cell concentration is adjusted to 4×10^6 viable ([…]) cells per ml by hemocytometer counts. A total of 0.5 ml (2×10^6 cells) is implanted sc on the right flank of BALB/c female mice in groups of 8. Treatment is given ip on Days 1-10, and tumors are measured in perpendicular diameters with a vernier caliper on Day 18. Tumor volume is calculated by multiplying length×width^2×0.5. Generally, ≥75% inhibition of tumor growth reflects significant antitumor effect.

A further test deals with B16 melanoma cells. Briefly: B16 mouse melanoma cell clonogenic cytotoxicity assay in vitro, two hour exposure. It is filed as cell-based. The conditions noted are these: B16 cloning efficiency; 2 hour exposure; 10% fetal calf serum. As to the method: The B16 mouse melanoma cell assay measures the ability of a compound to inhibit the clonogenic capacity of cells in vitro following a two hour exposure to the compound.
B16 melanoma (highly metastatic subline, F10) are used and maintained as monolayer cultures in Minimal Essential Media (Grand Island Biological Co., Grand Island, N.Y.) supplemented with 10% calf serum, 1% antibiotics in a 5% CO2 humidified incubator at 37° C. Asynchronous populations of cells are harvested and replated to 5000 cells/plate in sterile 60 mm×15 mm petri plates. Plates are incubated overnight to allow attachment of the cells to the plate. Cells are treated with the compound to be evaluated under sterile conditions, allowed to react for 2 hours followed by aspiration of medium. Plates are washed one time with 5 ml of phosphate buffered saline (PBS), followed by the addition of 5 ml of fresh media. […] Viability is measured by the ability of a cell to form a colony of greater than 50 cells. […] Plates are dried and counted with a Biotran III Automatic Count Totalized (New Brunswick Scientific Co., Edison, N.J.). Mean and standard deviation of triplicate samples are determined for each drug concentration. The data are analyzed by plotting the log of the survival fraction (number of colonies in drug treated plates/number of colonies in controls) versus the drug concentration. […]

For test [4], the system named is mammary adenocarcinoma 16/c. In words: mammary adenocarcinoma 16/c implanted sc in C3H mice. Format: in vivo, mouse. Conditions: ip, q4D × 5. As to the method: Compound No. 1 from Table A was also tested in a further in vivo tumor model, mammary adenocarcinoma 16/c, a tumor model sensitive to DNA binders and alkylating agents. In this experiment, the tumor was implanted sc in C3H mice, and the drug was administered ip or iv on an intermittant treatment schedule, i.e., once on days 1, 5, 9, 13 and 17. Tumors were measured 3 weeks after implantation, and activity was assessed by degree of tumor growth inhibition.

The test system of the next test is B16 melanoma. Briefly: in vivo ip B16 melanoma in mice. Details: species or system mouse. As for the experimental part: In this system, groups of eight B6D2F1 mice are inoculated ip with 0.5 ml of a 10% (w:v) brei of B16 melanoma prepared from pooled sc tumors excised at 14-21 days from […] donor mice. Daily treatment is begun 24 hours after tumor implantation and is continued daily for ten (10) days. The route of drug administration is ip. The mice are monitored daily for survival for sixty (60) days. Antitumor activity is assessed by prolongation of median survival time. An ILS of ≥25% indicates activity in this tumor model.
Similarly, in another additional in vivo tumor model, namely B16 melanoma in mice, Compound No. 1 from Table A, administered ip in a dosage schedule of 8, 4, 2, 1 and 0.5 mg/kg produced an average increase in lifespan (ILS) of 32% at a maximally tolerated dose (MTD) of 3.4 μM/kg.

The next test deals with P388 leukemia. Conditions: cited from earlier work.
The conditions of test [5]: Dumas et al., JP 58,192,893; cited from earlier work.
Test [6] relates to mammary adenocarcinoma 16/c. The conditions noted are these: general statement on the positive control; cited from earlier work.

Several values for one entry are separate records, joined by “and”; a condition that tells them apart may be missing. Equal entries are not always repeated.

“μ-[1,2-Bis(diphenylphosphino)ethane]bis[2,3,4,6-tetra-O-acetyl-1-thio-β-D-glucopyranosato-S)gold(I)] [compound 2]”: in test [1], the “ILS relative to cisplatin” value is “comparable to the clinically useful antitumor agent cisplatin”; the “activity in the P388 leukemia assay” value was “particularly good activity”; the “ILS (Max), maximum increase in lifespan” value amounted to 95%. For the same molecule, in [2], the “ILS (MAX), maximum increase in lifespan” value is 67%.
As to “μ-1,2-Bis(Diphenylphosphino)Ethane]Bis[(1-Thio-β-D-Galactopyranosato-S)Gold(I)] [compound 4]”, the “ILS (Max), maximum increase in lifespan” value in test [1] is 85% and 100% and 147%. Further, the “ILS (MAX), maximum increase in lifespan” value in test [2] is listed as 37%.
In general, IC50 refers to the concentration at which inhibition is half-maximal. High values mean a need for much substance, low ones inhibition by little substance. In general, Inhibition refers to the drop in the measured response relative to a control, in per cent. Higher therefore signals a strong effect. Take `OCC1OC([S][Au])C(O)C(O)C1O.OCC1OC([S][Au])C(O)C(O)C1O.c1ccc(P(CCP(c2ccccc2)c2ccccc2)c2ccccc2)cc1` [Compound No. 1]: the IC50 in [3] turned out to be 5000 nM. Further, in the test with ADJ-PC6 Plasmacytoma (3 mg/kg/day × 10, ip), the “% Inhibition of tumor growth (Day 18)” value came to 50%; the “MTV, mean tumor volume on Day 18” value came to 295 ± 163 mm^3; the “N.P., proportion of mice without palpable tumor on Day 18” value is on record as 0/8. Moreover, in the test on ADJ-PC6 Plasmacytoma (6 mg/kg/day × 10, ip), the “% Inhibition of tumor growth (Day 18)” value amounted to 98%; the “MTV, mean tumor volume on Day 18” value turned out to be 11 ± 28 mm^3; the “N.P., proportion of mice without palpable tumor on Day 18” value is reported as 6/7. The “inhibition of ADJPC6 Plasmacytoma” value with ADJ-PC6 Plasmacytoma (another experiment, same dose (6 mg/kg/day × 10, ip) and schedule) was found to be 23%. In test [1], the “ILS relative to cisplatin” value is given as “comparable to the clinically useful antitumor agent cisplatin”; the “activity in the P388 leukemia assay” value is given as “particularly good activity”; the “ILS (Max), maximum increase in lifespan” value was found to be 86 ± 8%. The IC50 with B16 melanoma cells came to 1000 ± 200 nM. Also, in test [4] (Experiment 1, 12 mg/kg), the Inhibition was determined as 96%; the “Mean Tumor Volume on Day 21” value came to 42 ± 60 mm^3; the “N.P., proportion of mice without palpable tumors on Day 21” value was 3/5. In addition, the “average increase in lifespan (ILS)” value in the test on B16 melanoma (B16 melanoma in mice, ip 8, 4, 2, 1 and 0.5 mg/kg, at MTD of 3.4 μM/kg) turned out to be 32%. The “ILS, maximum increase in lifespan” value with B16 melanoma (mice bearing ip B16 melanoma, ip qD × 10, slash-separated figures are separate experiments) was 37% and 26%. Also, in test [2], the “ILS (MAX), maximum increase in lifespan” value is 45% and 65%.
Take “μ-[1,2-Bis(Diphenylphosphino)Ethane]-bis [compound 8, μ-[1,2-Bis(Diphenylphosphino)Ethane]-bis [1-Thio-D-Ribofuranosato-S)Gold(I)]]”: the “ILS (Max), maximum increase in lifespan” value in test [1] is 50% and 56%.
For “μ-[1,2-Bis(diphenylphosphino)ethane]-bis[1-seleno-β-D-glucopyranosato-se)gold(I)] [compound 7]”, in [1], the “ILS (Max), maximum increase in lifespan” value is 36% and 27%. In addition, the “ILS (MAX), maximum increase in lifespan” value in test [2] was determined as 46%.
As to `CC(=O)OC[C@H]1O[C@@H]([S-])[C@H](OC(C)=O)[C@@H](OC(C)=O)[C@@H]1OC(C)=O.CCP(CC)CC.[Au+]` [auranofin], the “activity in an intraperitoneal P388 leukemia tumor model” value in the test on P388 leukemia (Mirabelli et al. 1984) is recorded as “respectable activity”. Besides, in the test on P388 leukemia (Simon et al. 1981, Mirabelli et al. 1985), the “antitumor effects in animals bearing P388 leukemia” value was “significant antitumor effects”.
`CC[PH](CC)(CC)[Au][Se]C1OC(COC(C)=O)C(OC(C)=O)C(OC(C)=O)C1OC(C)=O` (stereo not shown) [selenium analog of auranofin]: the antiarthritic utility result in test [5] is “antiarthritic agents”.
Regarding `N.N.[Cl][Pt][Cl]` [Cisplatin, cisplatin], the tumor growth inhibition result with ADJ-PC6 Plasmacytoma (positive control, in words) is recorded as “complete tumor growth inhibition”. Further, in test [4] (Experiment 1, 6 mg/kg), the Inhibition is reported as 97%; the “Mean Tumor Volume on Day 21” value is 30 ± 64 mm^3; the “N.P., proportion of mice without palpable tumors on Day 21” value is 6/8. Also, in test [4] (Experiment 2, 6 mg/kg), the Inhibition was 100% and 98%; the “N.P., proportion of mice without palpable tumors on Day 21” value was 8/8 and 7/8. Besides, in [4] (Experiment 2, 8 mg/kg), the Inhibition was 36%; the “Mean Tumor Volume on Day 21” value came to 711 ± 268 mm^3; the “N.P., proportion of mice without palpable tumors on Day 21” value was 0/7. The “inhibition of the growth of mammary adenocarcinoma 16/c” value in test [6] was “complete inhibition”.
In the case of “μ-[1,3-Bis(diphenylphosphino)propane]bis[1-thio-β-D-glucopyranosato-S)gold(I)] [compound 6]”, the “ILS (Max), maximum increase in lifespan” value in test [1] was 28% and 56% and 41%. Also, in [2], the “ILS (MAX), maximum increase in lifespan” value was determined as 35%.
In the case of “μ-8 1,2-Bis(Diphenylphosphino)Ethane]Bis[(2,3,4,6-Tetra-O-Acetyl-1-Thio-α-D-Mannopyranosato-S)Gold(I)] [compound 3]”, in [1], the “ILS relative to cisplatin” value was “comparable to the clinically useful antitumor agent cisplatin”; the “activity in the P388 leukemia assay” value is on record as “particularly good activity”; the “ILS (Max), maximum increase in lifespan” value was 30% and 25%.
For the molecule “μ-[1,2-Bis(diphenylphosphino)ethane]bis[1,thio-α-D-mannopyranosato-S)gold(I)] [compound 5]”, the “ILS (Max), maximum increase in lifespan” value in test [1] was 90% and 74%.
